Experimental data: ChEMBL document CHEMBL1201862, “PubChem BioAssay data set” (2004)
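Following 48 hours of exposure in 96-well plates, responses at five concentrations were used to interpolate endpoints linearly. GI50 marks 50% less growth.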 Active and inactive are the calls of the source. Rule as the data show it: active = GI50 up to about 1.1 µM and inactive = higher.

Key:
Experiment in all cases: NCI-60 cell line screen, 48 h
SF-295 = tested on: SF-295
A498 = tested on: A498
CAKI-1 = tested on: CAKI-1
SK-OV-3 = tested on: SK-OV-3
HCC 2998 = tested on: HCC 2998
HCT-15 = tested on: HCT-15
SF-268 = tested on: SF-268
SNB-19 = tested on: SNB-19
K562 = tested on: K562
SN12C = tested on: SN12C
EKVX = tested on: EKVX
M14 = tested on: M14
ACHN = tested on: ACHN
NCI-H460 = tested on: NCI-H460
UO-31 = tested on: UO-31
BT-549 = tested on: BT-549
COLO 205 = tested on: COLO 205
A549 = tested on: A549
SK-MEL-2 = tested on: SK-MEL-2
NCI-H522 = tested on: NCI-H522

Row | Structure (SMILES) | GI50 (SF-295) | GI50 (A498) | GI50 (CAKI-1) | GI50 (SK-OV-3) | GI50 (HCC 2998) | GI50 (HCT-15) [µM] | GI50 (SF-268) | GI50 (SNB-19) | GI50 (K562) | GI50 (SN12C) | GI50 (EKVX) | GI50 (M14) | GI50 (ACHN) | GI50 (NCI-H460) | GI50 (UO-31) | GI50 (BT-549) | GI50 (COLO 205) | GI50 (A549) | GI50 (SK-MEL-2) | GI50 (NCI-H522)
1 | Cc1cc(C)n(C(=O)CSc2nnc(SCC(=O)n3nc(C)cc3C)s2)n1 | > 100 µM (inactive) | > 100 µM (inactive) | > 100 µM (inactive) | > 100 µM (inactive) | > 100 µM (inactive) | > 100 | > 100 µM (inactive) | > 100 µM (inactive) | > 100 µM (inactive) | > 100 µM (inactive) | 25.5 µM (inactive) | > 100 µM (inactive) | > 100 µM (inactive) | > 100 µM (inactive) | > 100 µM (inactive) | > 100 µM (inactive) | > 100 µM (inactive) | > 100 µM (inactive) |  | 
2 | C#CCn1c(=O)c(C#N)c(O)c2cc3ccccc3nc21 | > 100 µM (inactive) | > 100 µM (inactive) | > 100 µM (inactive) | > 100 µM (inactive) | > 100 µM (inactive) | > 100 | > 31.6 µM (inactive) | > 100 µM (inactive) | > 100 µM (inactive) | > 100 µM (inactive) | > 100 µM (inactive) |  |  | > 100 µM (inactive) | > 100 µM (inactive) |  | > 100 µM (inactive) | > 100 µM (inactive) | > 100 µM (inactive) | > 100 µM (inactive)
3 | COc1c2c(c(O)c3c4c(c(C)cc13)C1OC3(C(OC)OC5CC(C)(O)C(OC6CC(C)(O)C(O)C(C)O6)C(C)O5)OC1C(OC)(O4)C31CO1)C(=O)C(O)CC2OC1CC(C)(O)C(OC(C)=O)C(C)O1 (stereo not given) | < 0.01 µM (active) | < 0.01 µM (active) | 0.052 µM (active) | < 0.01 µM (active) | < 0.01 µM (active) | 0.0767 | < 0.01 µM (active) | < 0.01 µM (active) | < 0.01 µM (active) | < 0.01 µM (active) | < 0.01 µM (active) | < 0.01 µM (active) | < 0.0112 µM (active) | < 0.01 µM (active) | 0.0356 µM (active) |  | < 0.01 µM (active) | < 0.01 µM (active) | < 0.01 µM (active) | < 0.01 µM (active)
4 | CSC(=N)NNC(=O)CCC(=O)Nc1ccccc1C(F)(F)F | > 100 µM (inactive) | > 100 µM (inactive) | > 100 µM (inactive) | > 100 µM (inactive) | > 100 µM (inactive) | > 100 | > 100 µM (inactive) | > 100 µM (inactive) | > 100 µM (inactive) | > 100 µM (inactive) | > 100 µM (inactive) | > 100 µM (inactive) | > 100 µM (inactive) | > 100 µM (inactive) | > 100 µM (inactive) |  | > 100 µM (inactive) | > 100 µM (inactive) | > 100 µM (inactive) | > 100 µM (inactive)
5 | CCN(CC)CC(=N)N(CC)c1ccccc1 | > 100 µM (inactive) | > 100 µM (inactive) | > 100 µM (inactive) | > 100 µM (inactive) | 93.3 µM (inactive) | > 100 | > 100 µM (inactive) | > 100 µM (inactive) | > 100 µM (inactive) | > 100 µM (inactive) | > 100 µM (inactive) | > 100 µM (inactive) | > 100 µM (inactive) | > 100 µM (inactive) | > 100 µM (inactive) |  | > 100 µM (inactive) | > 100 µM (inactive) | > 100 µM (inactive) | > 100 µM (inactive)
6 | O=C(Nc1cc(Cl)c(Cl)cc1Cl)C(=O)C1C=CCS1(=O)=O (stereo not given) | > 100 µM (inactive) | > 100 µM (inactive) | > 100 µM (inactive) | > 100 µM (inactive) | > 100 µM (inactive) | > 100 | > 100 µM (inactive) | > 100 µM (inactive) | > 100 µM (inactive) | 93.5 µM (inactive) | > 100 µM (inactive) | > 100 µM (inactive) | > 100 µM (inactive) | > 100 µM (inactive) | > 100 µM (inactive) |  | > 100 µM (inactive) | > 100 µM (inactive) | > 100 µM (inactive) | > 100 µM (inactive)
7 | O=C1NC(c2cccc3ccccc23)Nc2ccc(O)cc21 (stereo not given) | 27.5 µM (inactive) | 23.9 µM (inactive) | 30.5 µM (inactive) | 41.1 µM (inactive) | 27.2 µM (inactive) | 11 | 35.6 µM (inactive) | 58.1 µM (inactive) | 8.57 µM (inactive) | 39.9 µM (inactive) | 42.3 µM (inactive) |  |  | 28 µM (inactive) | 30.2 µM (inactive) |  | 34.1 µM (inactive) | 33.4 µM (inactive) | 20.4 µM (inactive) | 22.3 µM (inactive)
8 | O=Cc1ccc(CCl)cc1 | 17.4 µM (inactive) | 29 µM (inactive) |  | 22.1 µM (inactive) |  | 17.9 | 24 µM (inactive) | 14.7 µM (inactive) | 27.1 µM (inactive) |  | 45.6 µM (inactive) | 14.8 µM (inactive) | 22.5 µM (inactive) | 18.6 µM (inactive) | 16.7 µM (inactive) |  | 48 µM (inactive) | 39.2 µM (inactive) | 17.2 µM (inactive) | 19.7 µM (inactive)
9 | NC(=O)c1coc(C2OC(CO)C(O)C2O)n1 (stereo not given) |  | > 100 µM (inactive) | > 10 µM (inactive) | > 100 µM (inactive) | > 100 µM (inactive) | > 100 | > 100 µM (inactive) | > 100 µM (inactive) | > 100 µM (inactive) | > 100 µM (inactive) | > 100 µM (inactive) | > 100 µM (inactive) | > 100 µM (inactive) | > 100 µM (inactive) | > 100 µM (inactive) |  | > 100 µM (inactive) | > 100 µM (inactive) | > 100 µM (inactive) | > 100 µM (inactive)
10 | O=C(NC1C2CC3CC(C2)CC1C3)c1cc(/C=C/c2ccccc2)nc(S)n1 (stereo not given) | > 100 µM (inactive) | > 100 µM (inactive) | > 100 µM (inactive) | > 100 µM (inactive) | > 100 µM (inactive) |  | > 100 µM (inactive) | > 100 µM (inactive) | > 100 µM (inactive) |  | > 100 µM (inactive) | > 100 µM (inactive) | > 100 µM (inactive) | > 100 µM (inactive) | > 100 µM (inactive) |  | > 100 µM (inactive) | > 100 µM (inactive) | > 100 µM (inactive) | > 100 µM (inactive)
11 | O=C(NC1C(O)C(O)C(CO)OC1n1cc(F)c(=O)[nH]c1=O)OCc1ccccc1 (stereo not given) | > 100 µM (inactive) | > 100 µM (inactive) | > 100 µM (inactive) | > 100 µM (inactive) | > 100 µM (inactive) | > 100 | > 100 µM (inactive) | > 100 µM (inactive) |  | > 100 µM (inactive) |  | > 100 µM (inactive) | > 100 µM (inactive) | > 100 µM (inactive) |  |  | > 100 µM (inactive) | > 100 µM (inactive) | > 100 µM (inactive) | > 100 µM (inactive)
12 | CCCCC(NC(=O)CC)C(=O)O (stereo not given) | > 100 µM (inactive) | > 100 µM (inactive) | > 100 µM (inactive) | > 100 µM (inactive) | > 31.6 µM (inactive) | > 100 | > 100 µM (inactive) | > 100 µM (inactive) | > 100 µM (inactive) | > 100 µM (inactive) | > 100 µM (inactive) |  |  | > 100 µM (inactive) | > 100 µM (inactive) |  | > 100 µM (inactive) | > 100 µM (inactive) | > 100 µM (inactive) | > 100 µM (inactive)
13 | COc1ccc(OC)c2c3c(ccc12)C(c1ccccc1)OC3=O (stereo not given) | 52.6 µM (inactive) | 81.7 µM (inactive) | 55.1 µM (inactive) | > 100 µM (inactive) | > 100 µM (inactive) | 61 | > 100 µM (inactive) | > 100 µM (inactive) | 47.2 µM (inactive) | 94.2 µM (inactive) | > 100 µM (inactive) | > 100 µM (inactive) | 55.7 µM (inactive) | 47.2 µM (inactive) | 36.8 µM (inactive) |  | 54 µM (inactive) | 85.5 µM (inactive) | 55 µM (inactive) | 36.5 µM (inactive)
14 | Nc1ncnc2c1ncn2C=C=CCO | > 100 µM (inactive) | > 100 µM (inactive) | > 100 µM (inactive) |  | > 100 µM (inactive) | > 100 |  | > 100 µM (inactive) | > 100 µM (inactive) | > 100 µM (inactive) |  | > 100 µM (inactive) |  | > 100 µM (inactive) | > 100 µM (inactive) | > 100 µM (inactive) | > 100 µM (inactive) |  | > 100 µM (inactive) | 
15 | COc1ccc(-c2nnc(-c3nsc4ccccc34)o2)cc1 |  |  |  |  | 77.4 µM (inactive) | 31.6 | 65.6 µM (inactive) | > 100 µM (inactive) |  | 59.4 µM (inactive) | 38.8 µM (inactive) | 80.9 µM (inactive) | 33 µM (inactive) | 45.4 µM (inactive) | 25.2 µM (inactive) |  | > 100 µM (inactive) | 78.5 µM (inactive) | > 100 µM (inactive) | 
16 | CCCCC1=C(Br)C(=C(Br)Br)OC1=O | 10.6 µM (inactive) | 15.2 µM (inactive) | 2.15 µM (inactive) | 17.6 µM (inactive) | 6.31 µM (inactive) | 2.2 | 2.61 µM (inactive) | 7.89 µM (inactive) | 3.32 µM (inactive) | 2.75 µM (inactive) | 2.49 µM (inactive) |  |  | 4.56 µM (inactive) | 11.9 µM (inactive) |  | 3.01 µM (inactive) | 17.1 µM (inactive) | 2.79 µM (inactive) | 1.86 µM (inactive)
